In publication PMC6544370 (Nature, 2019):

Experiments:
[1] = target: T1, STING (Stimulator of Interferon Genes) (Mus musculus, UniProt Q3TBT3); assay: native PAGE gel shift; type: binding; conditions: pH 7.5, 60 mM KCl, 5 mM Mg(OAc)2; labelled compound; 4-100 μM protein
T1 sequence (Q3TBT3 139-378 limits assumed): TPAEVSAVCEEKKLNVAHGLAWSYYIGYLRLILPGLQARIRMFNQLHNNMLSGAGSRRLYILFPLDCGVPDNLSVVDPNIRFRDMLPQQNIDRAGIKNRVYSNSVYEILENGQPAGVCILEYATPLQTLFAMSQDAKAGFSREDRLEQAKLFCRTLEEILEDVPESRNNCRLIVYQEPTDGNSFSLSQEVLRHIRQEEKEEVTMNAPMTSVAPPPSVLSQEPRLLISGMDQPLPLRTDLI

Ec-CdnD02 (CD-NTase038) = Ec-CdnD02 (CD-NTase038) (Enterobacter hormaechei, UniProt P0DSP4); conditions: with GTP; pH 9.4, 5 mM Mg(OAc)2, 37 °C; product cAAG
Em-CdnE = target: T2, Em-CdnE (Elizabethkingia meningoseptica, UniProt P0DSP2); assay: X-ray crystal structure; type: binding
T2 sequence (P0DSP2 1-292): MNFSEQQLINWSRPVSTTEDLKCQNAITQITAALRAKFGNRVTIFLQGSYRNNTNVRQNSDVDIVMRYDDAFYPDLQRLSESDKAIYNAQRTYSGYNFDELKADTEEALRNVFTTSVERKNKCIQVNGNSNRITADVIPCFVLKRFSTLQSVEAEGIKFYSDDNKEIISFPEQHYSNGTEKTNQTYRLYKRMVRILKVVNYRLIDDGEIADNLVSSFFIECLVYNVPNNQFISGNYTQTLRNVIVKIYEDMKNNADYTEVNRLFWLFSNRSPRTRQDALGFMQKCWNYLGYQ

Rm-CdnE = target: T3, Rm-CdnE (Rhodothermus marinus, UniProt G2SLH8); assay: X-ray crystal structure; type: binding; conditions: with Upnpp and MgCl2; nonhydrolyzable substrate analogue
T3 sequence (G2SLH8 1-288): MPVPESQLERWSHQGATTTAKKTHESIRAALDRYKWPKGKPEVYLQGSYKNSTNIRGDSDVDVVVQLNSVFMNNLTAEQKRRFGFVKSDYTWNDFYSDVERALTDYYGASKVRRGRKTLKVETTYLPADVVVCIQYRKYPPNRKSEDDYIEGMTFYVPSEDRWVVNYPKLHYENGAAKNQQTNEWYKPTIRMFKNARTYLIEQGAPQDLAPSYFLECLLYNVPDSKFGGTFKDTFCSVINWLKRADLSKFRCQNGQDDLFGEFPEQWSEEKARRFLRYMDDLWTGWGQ

Ec-CdnD02 (CD-NTase038), sequence (P0DSP4 whole entry): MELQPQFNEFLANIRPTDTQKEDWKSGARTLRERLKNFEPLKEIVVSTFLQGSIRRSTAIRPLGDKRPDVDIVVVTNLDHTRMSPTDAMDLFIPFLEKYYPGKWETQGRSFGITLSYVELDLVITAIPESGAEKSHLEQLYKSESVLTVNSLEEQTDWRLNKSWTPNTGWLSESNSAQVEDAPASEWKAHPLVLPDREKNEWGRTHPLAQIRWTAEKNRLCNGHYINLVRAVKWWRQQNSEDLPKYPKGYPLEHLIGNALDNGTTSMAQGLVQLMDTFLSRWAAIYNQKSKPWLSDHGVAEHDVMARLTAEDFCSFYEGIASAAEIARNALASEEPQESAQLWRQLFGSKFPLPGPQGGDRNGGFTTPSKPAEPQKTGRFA

In the case of Nc1nc2c(ncn2[C@@H]2O[C@@H]3COP(=O)(O)O[C@H]4[C@@H](O)[C@H](n5cnc6c(N)ncnc65)O[C@@H]4COP(=O)(O)O[C@H]3[C@H]2O)c(=O)[nH]1 [3′3′ cGAMP], the “native PAGE gel shift” value [1] is reported as “STING bound to all four cyclic dipurine molecules with high affinity”.

In the case of Nc1ncnc2c1ncn2[C@@H]1O[C@H](COP(=O)(O)OP(=O)(O)OP(=O)(O)O)[C@@H](O)[C@H]1O [ATP], the “radiolabelled NTP, silica TLC” value (Ec-CdnD02 (CD-NTase038)) is reported as “ATP and GTP were necessary and sufficient for product formation”.

For Nc1ncnc2c1ncn2[C@@H]1O[C@H](COP(=O)(O)CP(=O)(O)OP(=O)(O)O)[C@@H](O)[C@H]1O [Apcpp], the X-ray crystal structure (Em-CdnE; with GTP and Mg2+, nonhydrolyzable substrate analogue) was “Crystal structure of Em-CdnE in complex with GTP and nonhydrolyzable ATP” and the X-ray crystal structure (Rm-CdnE) was “structure of Rm-CdnE in complex with nonhydrolyzable ATP and UTP”.

For Nc1nc2c(ncn2[C@@H]2O[C@H](COP(=O)(O)OP(=O)(O)OP(=O)(O)O)[C@@H](O)[C@H]2O)c(=O)[nH]1 [GTP], the X-ray crystal structure (Em-CdnE; with Apcpp and Mg2+) was “Crystal structure of Em-CdnE in complex with GTP and nonhydrolyzable ATP”.

With Nc1nc2c(ncn2[C@@H]2O[C@@H]3COP(=O)(O)O[C@H]4[C@@H](O)[C@H](n5cnc6c(=O)[nH]c(N)nc65)O[C@@H]4COP(=O)(O)O[C@H]3[C@H]2O)c(=O)[nH]1 [c-di-GMP] the “native PAGE gel shift” value [1] was “STING bound to all four cyclic dipurine molecules with high affinity”.
